Laboratory results published in the NIST ThermoML archive (doi:10.1021/je200616t).
Numbers after ± are expanded uncertainties.

Assay: xn = mol fraction of the nth substance listed
Settings: 101 kPa, Liquid, MP522 conductivity instrument

CCCCCC[n+]1ccccc1.O=S(=O)([N-]S(=O)(=O)C(F)(F)F)C(F)(F)F [1-hexylpyridinium bis(trifluromethylsulfonyl)imide] + CC#N
electrical conductivity [S/m]
Settings	283.15 K	293.15 K	298.15 K	303.15 K	313.15 K
x1 = 0.0432	2.75 ± 0.06	3.05 ± 0.06	3.2 ± 0.06	3.35 ± 0.07	3.65 ± 0.07
x1 = 0.0703	2.91 ± 0.06	3.28 ± 0.07	3.46 ± 0.07	3.65 ± 0.07	4.01 ± 0.08
x1 = 0.0883	2.83 ± 0.06	3.22 ± 0.06	3.42 ± 0.07	3.61 ± 0.07	4 ± 0.08
x1 = 0.1355	2.37 ± 0.05	2.77 ± 0.06	2.98 ± 0.06	3.19 ± 0.06	3.61 ± 0.07
x1 = 0.2056	1.64 ± 0.033	2 ± 0.04	2.19 ± 0.04	2.39 ± 0.05	2.81 ± 0.06
x1 = 0.2534	1.27 ± 0.026	1.59 ± 0.032	1.77 ± 0.036	2 ± 0.04	2.38 ± 0.05
x1 = 0.332	0.886 ± 0.018	1.16 ± 0.023	1.3 ± 0.026	1.46 ± 0.029	1.79 ± 0.036
x1 = 0.4498	0.503 ± 0.01	0.702 ± 0.014	0.811 ± 0.016	0.935 ± 0.019	1.2 ± 0.024
x1 = 0.5297	0.351 ± 0.007	0.51 ± 0.01	0.599 ± 0.012	0.702 ± 0.014	0.924 ± 0.019
x1 = 0.6276	0.239 ± 0.005	0.362 ± 0.007	0.437 ± 0.009	0.518 ± 0.011	0.704 ± 0.014
x1 = 0.8155	0.128 ± 0.003	0.207 ± 0.004	0.256 ± 0.005	0.316 ± 0.006	0.452 ± 0.009
x1 = 0.9205	0.0936 ± 0.002	0.157 ± 0.003	0.197 ± 0.004	0.245 ± 0.005	0.358 ± 0.007
x1 = 1	0.0737 ± 0.0016	0.128 ± 0.003	0.163 ± 0.003	0.205 ± 0.004	0.306 ± 0.006

CCCC[n+]1ccccc1.O=S(=O)([N-]S(=O)(=O)C(F)(F)F)C(F)(F)F [1-butylpyridinium bis[(trifluoromethyl)sulfonyl]imide] + CC#N
electrical conductivity [S/m]
Settings	283.15 K	293.15 K	298.15 K	303.15 K	313.15 K
x1 = 0.0379	3.17 ± 0.06	3.52 ± 0.07	3.68 ± 0.07	3.85 ± 0.08	4.19 ± 0.08
x1 = 0.0652	3.38 ± 0.07	3.77 ± 0.08	3.96 ± 0.08	4.16 ± 0.08	4.55 ± 0.09
x1 = 0.1114	3.28 ± 0.07	3.72 ± 0.07	3.94 ± 0.08	4.18 ± 0.08	4.64 ± 0.09
x1 = 0.1566	2.84 ± 0.06	3.3 ± 0.07	3.54 ± 0.07	3.78 ± 0.08	4.26 ± 0.09
x1 = 0.217	2.22 ± 0.04	2.67 ± 0.05	2.89 ± 0.06	3.13 ± 0.06	3.6 ± 0.07
x1 = 0.3137	1.46 ± 0.029	1.83 ± 0.037	2.02 ± 0.04	2.23 ± 0.05	2.66 ± 0.05
x1 = 0.4004	1.01 ± 0.02	1.31 ± 0.026	1.48 ± 0.03	1.66 ± 0.033	2.04 ± 0.04
x1 = 0.513	0.653 ± 0.013	0.897 ± 0.018	1.03 ± 0.021	1.18 ± 0.024	1.5 ± 0.03
x1 = 0.6732	0.371 ± 0.008	0.546 ± 0.011	0.647 ± 0.013	0.762 ± 0.015	1.01 ± 0.02
x1 = 0.7658	0.282 ± 0.006	0.427 ± 0.009	0.512 ± 0.01	0.611 ± 0.012	0.83 ± 0.017
x1 = 0.8473	0.223 ± 0.005	0.348 ± 0.007	0.424 ± 0.009	0.511 ± 0.01	0.708 ± 0.014
x1 = 0.8897	0.2 ± 0.004	0.316 ± 0.006	0.388 ± 0.008	0.47 ± 0.01	0.657 ± 0.013
x1 = 0.9649	0.167 ± 0.004	0.261 ± 0.005	0.33 ± 0.007	0.405 ± 0.008	0.576 ± 0.012
x1 = 1	0.151 ± 0.003	0.246 ± 0.005	0.307 ± 0.006	0.377 ± 0.008	0.542 ± 0.011

CCCCCC[n+]1ccccc1.O=S(=O)([N-]S(=O)(=O)C(F)(F)F)C(F)(F)F [1-hexylpyridinium bis(trifluromethylsulfonyl)imide] + CC1COC(=O)O1
electrical conductivity [S/m]
Settings	283.15 K	293.15 K	298.15 K	303.15 K	313.15 K
x1 = 0.0128	0.184 ± 0.004	0.226 ± 0.005	0.249 ± 0.005	0.275 ± 0.006	0.324 ± 0.007
x1 = 0.0186	0.243 ± 0.005	0.303 ± 0.006	0.334 ± 0.007	0.367 ± 0.007	0.435 ± 0.009
x1 = 0.0321	0.354 ± 0.007	0.445 ± 0.009	0.489 ± 0.01	0.539 ± 0.011	0.641 ± 0.013
x1 = 0.0545	0.472 ± 0.01	0.597 ± 0.012	0.661 ± 0.013	0.731 ± 0.015	0.874 ± 0.018
x1 = 0.0693	0.519 ± 0.011	0.66 ± 0.013	0.733 ± 0.015	0.814 ± 0.016	0.976 ± 0.02
x1 = 0.1001	0.567 ± 0.011	0.729 ± 0.015	0.815 ± 0.016	0.911 ± 0.018	1.1 ± 0.022
x1 = 0.1332	0.574 ± 0.012	0.749 ± 0.015	0.841 ± 0.017	0.944 ± 0.019	1.16 ± 0.023
x1 = 0.1806	0.539 ± 0.011	0.72 ± 0.015	0.817 ± 0.016	0.925 ± 0.019	1.15 ± 0.023
x1 = 0.2489	0.463 ± 0.009	0.636 ± 0.013	0.73 ± 0.015	0.838 ± 0.017	1.06 ± 0.021
x1 = 0.334	0.366 ± 0.007	0.522 ± 0.011	0.609 ± 0.012	0.708 ± 0.014	0.918 ± 0.018
x1 = 0.4547	0.256 ± 0.005	0.384 ± 0.008	0.458 ± 0.009	0.542 ± 0.011	0.725 ± 0.015
x1 = 0.5693	0.19 ± 0.004	0.294 ± 0.006	0.358 ± 0.007	0.43 ± 0.009	0.589 ± 0.012
x1 = 0.7043	0.136 ± 0.003	0.218 ± 0.004	0.27 ± 0.006	0.332 ± 0.007	0.47 ± 0.01
x1 = 0.8506	0.0986 ± 0.0021	0.167 ± 0.003	0.208 ± 0.004	0.258 ± 0.005	0.377 ± 0.008
x1 = 0.9425	0.0826 ± 0.0018	0.141 ± 0.003	0.179 ± 0.004	0.223 ± 0.005	0.332 ± 0.007
x1 = 1	0.0737 ± 0.0016	0.129 ± 0.003	0.163 ± 0.003	0.205 ± 0.004	0.306 ± 0.006

CCCC[n+]1ccccc1.O=S(=O)([N-]S(=O)(=O)C(F)(F)F)C(F)(F)F [1-butylpyridinium bis[(trifluoromethyl)sulfonyl]imide] + CC1COC(=O)O1
electrical conductivity [S/m]
Settings	283.15 K	293.15 K	298.15 K	303.15 K	313.15 K
x1 = 0.0282	0.356 ± 0.007	0.444 ± 0.009	0.489 ± 0.01	0.538 ± 0.011	0.635 ± 0.013
x1 = 0.0553	0.536 ± 0.011	0.672 ± 0.014	0.745 ± 0.015	0.821 ± 0.017	0.976 ± 0.02
x1 = 0.0934	0.66 ± 0.013	0.84 ± 0.017	0.933 ± 0.019	1.03 ± 0.021	1.24 ± 0.025
x1 = 0.1235	0.701 ± 0.014	0.896 ± 0.018	1 ± 0.02	1.12 ± 0.022	1.34 ± 0.027
x1 = 0.1897	0.686 ± 0.014	0.902 ± 0.018	1.02 ± 0.021	1.15 ± 0.023	1.4 ± 0.028
x1 = 0.269	0.607 ± 0.012	0.821 ± 0.017	0.938 ± 0.019	1.07 ± 0.022	1.34 ± 0.027
x1 = 0.3709	0.493 ± 0.01	0.692 ± 0.014	0.802 ± 0.016	0.927 ± 0.019	1.19 ± 0.024
x1 = 0.4666	0.4 ± 0.008	0.58 ± 0.012	0.681 ± 0.014	0.798 ± 0.016	1.04 ± 0.021
x1 = 0.5668	0.323 ± 0.007	0.483 ± 0.01	0.575 ± 0.012	0.679 ± 0.014	0.906 ± 0.018
x1 = 0.6944	0.248 ± 0.005	0.386 ± 0.008	0.467 ± 0.01	0.561 ± 0.011	0.764 ± 0.015
x1 = 0.7943	0.208 ± 0.004	0.33 ± 0.007	0.403 ± 0.008	0.489 ± 0.01	0.681 ± 0.014
x1 = 0.8591	0.188 ± 0.004	0.3 ± 0.006	0.367 ± 0.008	0.448 ± 0.009	0.628 ± 0.013
x1 = 0.9208	0.17 ± 0.004	0.275 ± 0.006	0.338 ± 0.007	0.415 ± 0.008	0.587 ± 0.012
x1 = 0.9715	0.157 ± 0.003	0.256 ± 0.005	0.317 ± 0.007	0.392 ± 0.008	0.556 ± 0.011
x1 = 1	0.15 ± 0.003	0.246 ± 0.005	0.307 ± 0.006	0.378 ± 0.008	0.54 ± 0.011
